Measured values from patent publication US8680100B2, “Sulfonylhydrazide compounds for treating proliferative disorders” (Synta Pharmaceuticals Corp., priority 2008, dated 2014).

System: HSP70
Test: Hsp70 Activity Essay (HSP70 ELISA on lysates of MDA435 cells)
Type: cell-based
Settings: concentration that increases HSP70 to 50% of maximum increase by N′1,N′3-dimethyl-N′1,N′3-di(phenylcarbonothioyl)malonohydrazide
Description: Each well was plated with MDA435 cells using DMEM 10% FBS Phenol-red free medium 2.5 k/well and incubated in a 37° C./5% CO2 incubator for a minimum of 6 hours to obtain good cell adherence.
Dilutions of each test compound were prepared in DMSO and DMEM 10% FBS Phenol-red free medium. The final concentration in each well was 1250 nM, 125 nM, 12.5 nM or 1.25 nM of test compound and 0.25% DMSO. 0.25% DMSO was used as a negative control. Lysis buffer (any lysis buffer suitable for use in the Assay Designs kit, e.g., such as that described in the kit instructions) was then added (amount used is one quarter of the volume already present in each plate) and the mixtures were then shaken for 10 minutes.
150 μL of “Can Get Signal” Immunoreaction Enhancer Solution (Solution 1 for primary antibody, TOYOBO, Catalogue No. NKB-101) were added to each of a series of ELISA plates. The ELISA plates were obtained from the HSP70 ELISA Kit (catalogue number EKS-700B) purchased from Assay Designs (Ann Arbor, Mich.). After the cells were lysed, 50 μL of lysate were taken from each well and added to an ELISA plate, resulting in a 4 fold dilution of the lysate (50 μL of lysate and 150 μL of Can Get Signal solution). The plates were covered with adhesive tape and incubated overnight at 4° C.;
In the morning, the liquid was aspirated from all wells and 400 μL of Washing Buffer made from 20× concentrate provided in the ELISA Kit and distilled water were added and then removed by aspiration. The addition of Washing Buffer and aspiration was repeated four times. After the fourth wash, the plate were inverted to a paper towel and carefully patted dry. 100 μL of HSP70 antibody provided in ELISA Kit were added to each well. Each well was covered with adhesive tape and incubated for one hour at room temperature. Washing Buffer was then added followed by removal with aspiration. The addition of Washing Buffer and aspiration was repeated four times, after which the plates were inverted and patted dry. 100 μL of HSP70 conjugate (provided in the ELISA Kit) were added to the wells. Each well was then covered with adhesive tape and incubated for one hour at room temperature. Washing Buffer was then added followed by removal with aspiration. The addition of Washing Buffer and aspiration was repeated four times, after which the plates were inverted and patted dry.
100 μL of the TMB Substrate (obtained from the ELISA Kit) were added to the wells (color development was visible in 1 minute). The wells were incubated until saturated color development (usually 5-15 minutes). Stop Solution 2 (provided in the ELISA Kit) was added in the same order TMB Substrate was added. The OD450 was then obtained using a plate reader. The EC50 for the compounds was calculated using N′^1,N′^3-dimethyl-N′^1,N′^3-di(phenylcarbonothioyl)malonohydrazide on the same plate as a control (concentration that increases HSP70 to 50% of maximum increase by N′^1,N′^3-dimethyl-N′^1,N′^3-di(phenylcarbonothioyl)malonohydrazide). The EC50 for each of the compounds tested is shown in example 1.

Row | EC50 [nM] | SMILES
1 | 60 | CN(NC(=O)CS(=O)(=O)NN(C)C(=S)c1cccc(F)c1)C(=S)c1cccc(F)c1 [Compound 1, N′-(3-fluorophenylcarbonothioyl)-2-(2-(3-fluorophenylcarbonothioyl)-2-methylhydrazinyl)-N′-methyl-2-oxoethanesulfonohydrazide]
2 | 25 | CCN(NS(=O)(=O)CC(=O)NN(C)C(=S)c1ccccc1)C(=S)c1ccccn1 [Compound 6, N′-ethyl-2-(2-methyl-2-(phenylcarbonothioyl)hydrazinyl)-2-oxo-N′-(pyridine-2-carbonothioyl) ethanesulfonohydrazide]
3 | 971 | CN(NC(=O)CS(=O)(=O)NN(C)C(=S)c1cnccn1)C(=S)c1ccccc1 [Compound 9, N′-methyl-2-(2-methyl-2-(phenylcarbonothioyl)hydrazinyl)-2-oxo-N′-(pyrazine-2-carbonothioyl)-ethanesulfonohydrazide]
4 | 180 | CN(NC(=O)CS(=O)(=O)NN(C)C(=S)c1cccnc1)C(=S)c1ccccc1 [Compound 10, N′-methyl-2-(2-methyl-2-(phenylcarbonothioyl)hydrazinyl)-2-oxo-N′-(pyridine-3-carbonothioyl)-ethanesulfonohydrazide]
5 | 1030 | CN(NC(=O)CS(=O)(=O)NN(C)C(=S)c1ccccc1)C(=S)c1ccncc1 [Compound 11, N′-methyl-2-(2-methyl-2-(pyridine-4-carbonothioyl)hydrazinyl)-2-oxo-N′-(phenylcarbonothioyl)ethane-sulfonohydrazide]
6 | 202 | CN(NC(=O)CS(=O)(=O)NN(C)C(=S)c1ccccc1)C(=S)c1cccnc1 [Compound 13, N′-methyl-2-(2-methyl-2-(pyridine-3-carbonothioyl)hydrazinyl)-2-oxo-N′-(phenylcarbonothioyl)ethane-sulfonohydrazide]
7 | 127 | CN(NC(=O)CS(=O)(=O)NN(C)C(=S)c1ccoc1)C(=S)c1ccoc1 [Compound 17, N′-(furan-3-carbonothioyl)-2-(2-(furan-3-carbonothioyl)-2-methylhydrazinyl)-N′-methyl-2-oxoethanesulfonohydrazide]
8 | 15 | CN(NC(=O)CS(=O)(=O)NN(C)C(=S)c1ccco1)C(=S)c1ccco1 [Compound 18, N′-(furan-2-carbonothioyl)-2-(2-(furan-2-carbonothioyl)-2-methylhydrazinyl)-N′-methyl-2-oxoethanesulfonohydrazide]
9 | 85 | CCN(CC)C(=S)N(C)NC(=O)CS(=O)(=O)NN(C)C(=S)N(CC)CC [Compound 20, 2-(2-(2-(diethylcarbamothioyl)-2-methylhydrazinyl)-2-oxoethylsulfonyl)-N,N′-diethyl-1-methylhydrazinecarbothioamide]
10 | 98 | CN(NC(=O)CS(=O)(=O)NN(C)C(=S)C1CC1)C(=S)C1CC1 [Compound 28, N′-(cyclopropanecarbonothioyl)-2-(2-(cyclopropanecarbonothioyl)-2-methylhydrazinyl)-N′-methyl-2-oxoethanesulfonohydrazide]
11 | 146 | CCN(NC(=O)CS(=O)(=O)NN(CC)C(=S)C1CC1)C(=S)C1CC1 [Compound 29, N′-(cyclopropanecarbonothioyl)-2-(2-(cyclopropanecarbonothioyl)-2-ethylhydrazinyl)-N′-ethyl-2-oxoethanesulfonohydrazide]
12 | 49 | CCN(NC(=O)CS(=O)(=O)NN(CC)C(=S)C1(C)CC1)C(=S)C1(C)CC1 [Compound 30, N′-ethyl-2-(2-ethyl-2-(1-methylcyclopropanecarbonothioyl) hydrazinyl)-N′-(1-methylcyclopropanecarbonothioyl)-2-oxoethanesulfonohydrazide]
13 | 174 | CCN(CC)C(=S)N(C)NS(=O)(=O)CC(=O)NN(C)C(=S)C1CC1 [Compound 31, 2-(2-(2-(cyclopropanecarbonothioyl)-2-methylhydrazinyl)-2-oxoethylsulfonyl)-N,N′-diethyl-1-methylhydrazinecarbothioamide]
14 | 958 | CN(NC(=O)CS(=O)(=O)NN(C)C(=S)C1CCC1)C(=S)C1CCC1 [Compound 32, N′-(cyclobutanecarbonothioyl)-2-(2-(cyclobutanecarbonothioyl)-2-methylhydrazinyl)-N′-methyl-2-oxoethanesulfonohydrazide]
15 | 143 | CCOC(=S)N(C)NS(=O)(=O)CC(=O)NN(C)C(=S)C1CC1 [Compound 33, O-ethyl 2-(2-(2-(cyclopropanecarbonothioyl)-2-methylhydrazinyl)-2-oxoethylsulfonyl)-1-methylhydrazinecarbothioate]
16 | 1020 | CCN(NS(=O)(=O)CC(=O)NN(C)C(=S)C1CC1)C(=S)c1cnccn1 [Compound 35, 2-(2-(cyclopropanecarbonothioyl)-2-methylhydrazinyl)-N′-ethyl-2-oxo-N′-(pyrazine-2-carbonothioyl)-ethanesulfonohydrazide]
17 | 76 | CN(NS(=O)(=O)CC(=O)NN(C)C(=S)C1CC1)C(=S)c1ccccc1 [Compound 36, 2-(2-(cyclopropanecarbonothioyl)-2-methylhydrazinyl)-N′-methyl-2-oxo-N′-(phenylcarbonothioyl)ethane-sulfonohydrazide]
18 | 22 | CN(NC(=O)CS(=O)(=O)NN(C)C(=S)C1CC1)C(=S)c1ccccc1 [Compound 39, N′-(cyclopropanecarbonothioyl)-N′-methyl-2-(2-methyl-2-(phenylcarbonothioyl)hydrazinyl)-2-oxoethanesulfonohydrazide]
19 | 1120 | CN(NS(=O)(=O)CC(=O)NN(C)C(=S)C1CCC1)C(=S)c1ccccc1 [Compound 40, 2-(2-(cyclobutanecarbonothioyl)-2-methylhydrazinyl)-N′-methyl-2-oxo-N′-(phenylcarbonothioyl)ethane-sulfonohydrazide]
20 | 56 | CN(NC(=O)CS(=O)(=O)NN(C)C(=S)c1ccc2c(c1)OCO2)C(=S)c1ccccc1 [Compound 42, N′-(benzo[d][1,3]dioxole-5-carbonothioyl)-N′-methyl-2-(2-methyl-2-(phenylcarbonothioyl)hydrazinyl)-2-oxoethanesulfonohydrazide]
21 | 74 | CN(NC(=O)CS(=O)(=O)NN(C)C(=S)c1ccc(N2CCOCC2)cc1)C(=S)c1ccccc1 [Compound 43, N′-methyl-2-(2-methyl-2-(phenylcarbonothioyl)hydrazinyl)-N′-(4-morpholinophenylcarbonothioyl)-2-oxoethanesulfonohydrazide]
22 | 228 | CSC(=S)N(C)NS(=O)(=O)CC(=O)NN(C)C(=S)c1ccccc1 [Compound 44, methyl 1-methyl-2-(2-(2-methyl-2-(phenylcarbonothioyl)hydrazinyl)-2-oxoethylsulfonyl) hydrazinecarbodithioate]
23 | 114 | CCN(NS(=O)(=O)CC(=O)NN(C)C(=S)c1ccccc1)C(=S)N1CCOCC1 [Compound 50, N′-ethyl-2-(2-methyl-2-(phenylcarbonothioyl)hydrazinyl)-N′-(morpholine-4-carbonothioyl)-2-oxoethanesulfonohydrazide]
24 | 57 | CN(NC(=O)CS(=O)(=O)NN(C)C(=S)N1CCCC1)C(=S)c1ccccc1 [Compound 51, N′-methyl-2-(2-methyl-2-(phenylcarbonothioyl)hydrazinyl)-2-oxo-N′-(pyrrolidine-1-carbonothioyl)-ethanesulfonohydrazide]
25 | 87 | CN(NC(=O)CS(=O)(=O)NN(C)C(=S)N1CCCCC1)C(=S)c1ccccc1 [Compound 52, N′-methyl-2-(2-methyl-2-(phenylcarbonothioyl)hydrazinyl)-2-oxo-N′-(piperidine-1-carbonothioyl)-ethanesulfonohydrazide]
26 | 102 | CN(NS(=O)(=O)CC(=O)NN(C)C(=S)N1CCCC1)C(=S)c1ccccc1 [Compound 53, N′-methyl-2-(2-methyl-2-(pyrrolidine-1-carbonothioyl)hydrazinyl)-2-oxo-N′-(phenylcarbonothioyl)ethane-sulfonohydrazide]
27 | 108 | CN(NS(=O)(=O)CC(=O)NN(C)C(=S)N1CCCCC1)C(=S)c1ccccc1 [Compound 54, N′-methyl-2-(2-methyl-2-(piperidine-1-carbonothioyl)hydrazinyl)-2-oxo-N′-(phenylcarbonothioyl)ethane-sulfonohydrazide]
